Tested on: LPS induced neuroinflammation
Experiment: LPS induced neuroinflammation: cytokine ELISA of brain homogenates
Type: in vivo, mouse
Settings: 25 mg/kg i.v. alternate days, day 7
Protocol: Animals and lipopolysaccharide induced neuroinflammation: Male C57/6J mice weighing 32 to 37 grams were housed five per cage at a temperature of 22±2° C. with 12 hour light/12 hour dark cycles with free access to laboratory food and water. Lipopolysaccharides (LPS) from Escherichia coli 026:B6, =10,000 EU/mg, purified by phenol extraction was purchased from Sigma (Sigma Aldrich, Mo., USA). The mice were randomly divided into seven groups: LPS, LPS+GA-1 or GA-2 or CP-1 or CP-2 or CP-3 or TAT. The LPS was administered intraperitoneally at […] in 100 μl of sterile saline followed by corn oil in the morning daily for six days. The GA or CP was administered intravenously at 25 mg/kg in 100 μl of sterile saline on alternate days. Additional control group included mice receiving saline alone. All animals were sacrificed on day 7.
Enzyme linked immunosorbent assay for cytokines: Frozen brain tissue was homogenized in RIPA lysis buffer (50 mmol/LTris-HCl, pH 6.8, 150 mmol/L NaCl, 5 mmol/L EDTA, 0.5% sodium deoxycholate, 0.5% NP-40) supplemented with a cocktail containing protease and phosphatase inhibitors (Chemicon, Millipore) on ice and then centrifuged at 16,000×g for 30 min. Supernatant was stored at −80° C. until further analysis. […]

Substance | IFN-γ in brain tissue | IL-6 in brain tissue homogenates | IL-12 in brain homogenates | TNF-α in brain homogenates
Ac-EPAPESPQV-NH2 [GA-2] | 3125.1 ± 815 pg/mL | 19.6 ± 0.84 pg/mL | 101.3 ± 15.9 pg/mL | 1199.2 ± 356.4 pg/mL
Ac-EPAPLAPYG-NH2 [GA-1] | 2863.2 ± 697.5 pg/mL | 18.7 ± 2 pg/mL | 92.0 ± 9.3 pg/mL | 1500.1 ± 476 pg/mL

From patent publication US11478526B2, “Methods of reducing neuroinflammation or toxicity induced by amyloid beta (abeta) using glucocorticoid induced leucine zipper (GILZ) analog peptides” (INDIANA UNIVERSITY RESEARCH AND TECHNOLOGY CORPORATION, priority 2016, dated 2022)
